Experimental data published in patent publication US10227344B2, “CK2 inhibitors, compositions and methods thereof” (Polaris Pharmaceuticals, Inc., priority 2016, dated 2019).

Experiments:
Assay type in all cases: cell-based
SKOV-3 = assay: Cancer cell panel, cell viability (resazurin): Ovarian, SKOV-3; settings: SKOV-3 (Ovarian), 72 hours; labelled drug combined with Example 3
Ramos = assay: Cancer cell panel, cell viability (resazurin): Burkitt's Lymphoma, Ramos; settings: 72 hours, labelled drug combined with Example 3
OVCAR-3 = assay: Cancer cell panel, cell viability (resazurin): Ovarian, OVCAR-3; settings: OVCAR-3 (Ovarian), 72 hours; labelled drug combined with Example 3
T47D = assay: Cancer cell panel, cell viability (resazurin): Breast, T47D; settings: 72 hours, labelled drug combined with Example 3
RPMI8226 = assay: Cancer cell panel, cell viability (resazurin): multiple myeloma, RPMI8226; settings: 72 hours, labelled drug combined with Example 3
H2122 = assay: Cancer cell panel, cell viability (resazurin): NSCLC, H2122; settings: 72 hours, labelled drug combined with Example 3
Daudi = assay: Cancer cell panel, cell viability (resazurin): Burkitt's Lymphoma, Daudi; settings: 72 hours, labelled drug combined with Example 3
SkBr-3 = assay: Cancer cell panel, cell viability (resazurin): Breast, SkBr-3; settings: SkBr-3 (Breast), 72 hours; labelled drug combined with Example 3
Raji = assay: Cancer cell panel, cell viability (resazurin): Burkitt's Lymphoma, Raji; settings: 72 hours, labelled drug combined with Example 3
BT-20 = assay: Cancer cell panel, cell viability (resazurin): Breast, BT-20; settings: BT-20 (Breast), 72 hours; labelled drug combined with Example 3
U266 = assay: Cancer cell panel, cell viability (resazurin): multiple myeloma, U266; settings: 72 hours, labelled drug combined with Example 3
HCT116 = assay: Cancer cell panel, cell viability (resazurin): Colon, HCT116; settings: 72 hours, labelled drug combined with Example 3
Mia-Paca-2 = assay: Cancer cell panel, cell viability (resazurin): Pancreatic, Mia-Paca-2; settings: Mia-Paca-2 (Pancreatic), 72 hours; labelled drug combined with Example 3
A2780 = assay: Cancer cell panel, cell viability (resazurin): Ovarian, A2780; settings: 72 hours, labelled drug combined with Example 3
SK-MEL-24 = assay: Cancer cell panel, cell viability (resazurin): Melanoma, SK-MEL-24; settings: SK-MEL-24 (Melanoma), 72 hours; labelled drug combined with Example 3
MCF7 = assay: Cancer cell panel, cell viability (resazurin): Breast, MCF7; settings: 72 hours, labelled drug combined with Example 3
Panc-1 = assay: Cancer cell panel, cell viability (resazurin): Pancreatic, Panc-1; settings: Panc-1 (Pancreatic), 72 hours; labelled drug combined with Example 3
EOL-1 = assay: Cancer cell panel, cell viability (resazurin): Leukemia, EOL-1; settings: EOL-1 (Leukemia), 72 hours; labelled drug combined with Example 3
Caki-2 = assay: Cancer cell panel, cell viability (resazurin): Renal, Caki-2; settings: Caki-2 (Renal), 72 hours; labelled drug combined with Example 3
LoVo = assay: Cancer cell panel, cell viability (resazurin): Colon, LoVo; settings: 72 hours, labelled drug combined with Example 3
MDA-MB-453 = assay: Cancer cell panel, cell viability (resazurin): Breast, MDA-MB-453; settings: MDA-MB-453 (Breast), 72 hours; labelled drug combined with Example 3
MDA-MB-231 = assay: Cancer cell panel, cell viability (resazurin): Breast, MDA-MB-231; settings: MDA-MB-231 (Breast), 72 hours; labelled drug combined with Example 3
K562 = assay: Cancer cell panel, cell viability (resazurin): Leukemia, K562; settings: 72 hours, labelled drug combined with Example 3
H460 = assay: Cancer cell panel, cell viability (resazurin): NSCLC, H460; settings: 72 hours, labelled drug combined with Example 3
HT29 = assay: Cancer cell panel, cell viability (resazurin): Colon, HT29; settings: 72 hours, labelled drug combined with Example 3
H1299 = assay: Cancer cell panel, cell viability (resazurin): NSCLC, H1299; settings: 72 hours, labelled drug combined with Example 3
MDA-MB-157 = assay: Cancer cell panel, cell viability (resazurin): Breast, MDA-MB-157; settings: MDA-MB-157 (Breast), 72 hours; labelled drug combined with Example 3
WM-115 = assay: Cancer cell panel, cell viability (resazurin): Melanoma, WM-115; settings: WM-115 (Melanoma), 72 hours; labelled drug combined with Example 3
Colo205 = assay: Cancer cell panel, cell viability (resazurin): Colon, Colo205; settings: 72 hours, labelled drug combined with Example 3
BxPC3 = assay: Cancer cell panel, cell viability (resazurin): Pancreatic, BxPC3; settings: 72 hours, labelled drug combined with Example 3
BT-474 = assay: Cancer cell panel, cell viability (resazurin): Breast, BT-474; settings: BT-474 (Breast), 72 hours; labelled drug combined with Example 3
DLD-1 = assay: Cancer cell panel, cell viability (resazurin): Colon, DLD-1; settings: DLD-1 (Colon), 72 hours; labelled drug combined with Example 3
A549 = assay: Cancer cell panel, cell viability (resazurin): NSCLC, A549; settings: 72 hours, labelled drug combined with Example 3
ACHN = assay: Cancer cell panel, cell viability (resazurin): Renal, ACHN; settings: 72 hours, labelled drug combined with Example 3
PC3 = assay: Cancer cell panel, cell viability (resazurin): Prostate, PC3; settings: 72 hours, labelled drug combined with Example 3
A375 = assay: Cancer cell panel, cell viability (resazurin): Melanoma, A375; settings: 72 hours, labelled drug combined with Example 3
Caov-3 = assay: Cancer cell panel, cell viability (resazurin): Ovarian, Caov-3; settings: Caov-3 (Ovarian), 72 hours; labelled drug combined with Example 3
Caki-1 = assay: Cancer cell panel, cell viability (resazurin): Renal, Caki-1; settings: Caki-1 (Renal), 72 hours; labelled drug combined with Example 3
HL60 = assay: Cancer cell panel, cell viability (resazurin): Leukemia, HL60; settings: 72 hours, labelled drug combined with Example 3
H23 = assay: Cancer cell panel, cell viability (resazurin): NSCLC, H23; settings: 72 hours, labelled drug combined with Example 3
H1975 = assay: Cancer cell panel, cell viability (resazurin): NSCLC, H1975; settings: 72 hours, labelled drug combined with Example 3

`CC(C)C[C@H](NC(=O)[C@H](Cc1ccccc1)NC(=O)c1cnccn1)B(O)O` [Bortezomib, bortezomib] was tested. Which “synergy, additivity or antagonism of the combination of Example 3 with the anti-cancer drug” value (“synergy, additivity or antagonism” for short) (SKOV-3) did it give?
Its value is “+ + + (Synergy relative to each agent alone (CI = 0.4-0.74 by Bliss Independence Model))”.

What about the “synergy, additivity or antagonism” value (Ramos) of the same molecule?
Its value is “+ (Additive relative to each agent alone (CI = 0.9-1 by Bliss Independence Model and <0.9 by Highest Single Agent Model))”.

What about the “synergy, additivity or antagonism” value (OVCAR-3) of the same molecule?
The value was “+ (Additive relative to each agent alone (CI = 0.9-1 by Bliss Independence Model and <0.9 by Highest Single Agent Model))”.

And the “synergy, additivity or antagonism” value (T47D)?
Its value is “+ (Additive relative to each agent alone (CI = 0.9-1 by Bliss Independence Model and <0.9 by Highest Single Agent Model))”.

And the “synergy, additivity or antagonism” value (RPMI8226)?
The value was “+ (Additive relative to each agent alone (CI = 0.9-1 by Bliss Independence Model and <0.9 by Highest Single Agent Model))”.

And the “synergy, additivity or antagonism” value (H2122)?
Its value is “+ (Additive relative to each agent alone (CI = 0.9-1 by Bliss Independence Model and <0.9 by Highest Single Agent Model))”.

What about the “synergy, additivity or antagonism” value (Daudi) of the same molecule?
The value was “+ (Additive relative to each agent alone (CI = 0.9-1 by Bliss Independence Model and <0.9 by Highest Single Agent Model))”.

And the “synergy, additivity or antagonism” value (SkBr-3)?
Its value is “+ (Additive relative to each agent alone (CI = 0.9-1 by Bliss Independence Model and <0.9 by Highest Single Agent Model))”.

And the “synergy, additivity or antagonism” value (Raji)?
Its value is “+ + (Slight synergy relative to each agent alone (CI = 0.75-0.9 by Bliss Independence Model))”.

What about the “synergy, additivity or antagonism” value (BT-20) of the same molecule?
The value was “+ + (Slight synergy relative to each agent alone (CI = 0.75-0.9 by Bliss Independence Model))”.

And the “synergy, additivity or antagonism” value (U266)?
Its value is “+ (Additive relative to each agent alone (CI = 0.9-1 by Bliss Independence Model and <0.9 by Highest Single Agent Model))”.

And the “synergy, additivity or antagonism” value (HCT116)?
The value was “+ + (Slight synergy relative to each agent alone (CI = 0.75-0.9 by Bliss Independence Model))”.

And the “synergy, additivity or antagonism” value (Mia-Paca-2)?
Its value is “+ + (Slight synergy relative to each agent alone (CI = 0.75-0.9 by Bliss Independence Model))”.

And the “synergy, additivity or antagonism” value (A2780)?
The value was “+ + (Slight synergy relative to each agent alone (CI = 0.75-0.9 by Bliss Independence Model))”.

What about the “synergy, additivity or antagonism” value (SK-MEL-24) of the same molecule?
The value was “+ + + (Synergy relative to each agent alone (CI = 0.4-0.74 by Bliss Independence Model))”.

What about the “synergy, additivity or antagonism” value (MCF7) of the same molecule?
The value was “− − (Antagonistic relative to each agent alone (CI = 1.2-1.49 by Highest Single Agent Model))”.

And the “synergy, additivity or antagonism” value (Panc-1)?
Its value is “+ (Additive relative to each agent alone (CI = 0.9-1 by Bliss Independence Model and <0.9 by Highest Single Agent Model))”.

What about the “synergy, additivity or antagonism” value (EOL-1) of the same molecule?
The value was “+ + (Slight synergy relative to each agent alone (CI = 0.75-0.9 by Bliss Independence Model))”.

What about the “synergy, additivity or antagonism” value (Caki-2) of the same molecule?
The value was “+ (Additive relative to each agent alone (CI = 0.9-1 by Bliss Independence Model and <0.9 by Highest Single Agent Model))”.

And the “synergy, additivity or antagonism” value (LoVo)?
Its value is “+ (Additive relative to each agent alone (CI = 0.9-1 by Bliss Independence Model and <0.9 by Highest Single Agent Model))”.

What about the “synergy, additivity or antagonism” value (MDA-MB-453) of the same molecule?
Its value is “+ (Additive relative to each agent alone (CI = 0.9-1 by Bliss Independence Model and <0.9 by Highest Single Agent Model))”.

What about the “synergy, additivity or antagonism” value (MDA-MB-231) of the same molecule?
The value was “+ (Additive relative to each agent alone (CI = 0.9-1 by Bliss Independence Model and <0.9 by Highest Single Agent Model))”.

What about the “synergy, additivity or antagonism” value (K562) of the same molecule?
Its value is “+ (Additive relative to each agent alone (CI = 0.9-1 by Bliss Independence Model and <0.9 by Highest Single Agent Model))”.

And the “synergy, additivity or antagonism” value (H460)?
The value was “+ + (Slight synergy relative to each agent alone (CI = 0.75-0.9 by Bliss Independence Model))”.

What about the “synergy, additivity or antagonism” value (HT29) of the same molecule?
Its value is “+ (Additive relative to each agent alone (CI = 0.9-1 by Bliss Independence Model and <0.9 by Highest Single Agent Model))”.

And the “synergy, additivity or antagonism” value (H1299)?
The value was “+ (Additive relative to each agent alone (CI = 0.9-1 by Bliss Independence Model and <0.9 by Highest Single Agent Model))”.

And the “synergy, additivity or antagonism” value (MDA-MB-157)?
The value was “+ + + (Synergy relative to each agent alone (CI = 0.4-0.74 by Bliss Independence Model))”.

What about the “synergy, additivity or antagonism” value (WM-115) of the same molecule?
Its value is “+ + (Slight synergy relative to each agent alone (CI = 0.75-0.9 by Bliss Independence Model))”.

And the “synergy, additivity or antagonism” value (Colo205)?
Its value is “− (Slightly antagonistic relative to each agent alone (CI = 1.1-1.2 by Highest Single Agent Model))”.

What about the “synergy, additivity or antagonism” value (BxPC3) of the same molecule?
Its value is “+ + + (Synergy relative to each agent alone (CI = 0.4-0.74 by Bliss Independence Model))”.

And the “synergy, additivity or antagonism” value (BT-474)?
The value was “+ + (Slight synergy relative to each agent alone (CI = 0.75-0.9 by Bliss Independence Model))”.

What about the “synergy, additivity or antagonism” value (DLD-1) of the same molecule?
Its value is “+ + + (Synergy relative to each agent alone (CI = 0.4-0.74 by Bliss Independence Model))”.

And the “synergy, additivity or antagonism” value (A549)?
The value was “+ + + (Synergy relative to each agent alone (CI = 0.4-0.74 by Bliss Independence Model))”.

And the “synergy, additivity or antagonism” value (ACHN)?
The value was “+ + (Slight synergy relative to each agent alone (CI = 0.75-0.9 by Bliss Independence Model))”.

What about the “synergy, additivity or antagonism” value (PC3) of the same molecule?
Its value is “+ (Additive relative to each agent alone (CI = 0.9-1 by Bliss Independence Model and <0.9 by Highest Single Agent Model))”.

And the “synergy, additivity or antagonism” value (A375)?
The value was “+ (Additive relative to each agent alone (CI = 0.9-1 by Bliss Independence Model and <0.9 by Highest Single Agent Model))”.

And the “synergy, additivity or antagonism” value (Caov-3)?
The value was “+ (Additive relative to each agent alone (CI = 0.9-1 by Bliss Independence Model and <0.9 by Highest Single Agent Model))”.

And the “synergy, additivity or antagonism” value (Caki-1)?
The value was “+ (Additive relative to each agent alone (CI = 0.9-1 by Bliss Independence Model and <0.9 by Highest Single Agent Model))”.

And the “synergy, additivity or antagonism” value (HL60)?
The value was “+ (Additive relative to each agent alone (CI = 0.9-1 by Bliss Independence Model and <0.9 by Highest Single Agent Model))”.

What about the “synergy, additivity or antagonism” value (H23) of the same molecule?
The value was “+ (Additive relative to each agent alone (CI = 0.9-1 by Bliss Independence Model and <0.9 by Highest Single Agent Model))”.

What about the “synergy, additivity or antagonism” value (H1975) of the same molecule?
Its value is “+ (Additive relative to each agent alone (CI = 0.9-1 by Bliss Independence Model and <0.9 by Highest Single Agent Model))”.
